Measured values reported in patent publication US12678413B2, “Compositions containing pterosin compound and derivatives thereof active ingredients for prevention or treatment of degenerative brain diseases” (priority 2017, dated 2026).
Where two headings read alike, the source gives them in different places.

Key:
[1] = molecular target: T1, butyrylcholinesterase (BChE) (Equus caballus, UniProt P81908); assay: BChE enzyme kinetics (Dixon plot and Lineweaver plot); assay type: biochemical
T1 construct: horse serum butyrylcholinesterase (BChE, EC3.1.1.8); purchased Sigma-Aldrich Co. (St. Louis, MO, USA); host or cells: horse serum
T1 sequence (P81908 whole entry): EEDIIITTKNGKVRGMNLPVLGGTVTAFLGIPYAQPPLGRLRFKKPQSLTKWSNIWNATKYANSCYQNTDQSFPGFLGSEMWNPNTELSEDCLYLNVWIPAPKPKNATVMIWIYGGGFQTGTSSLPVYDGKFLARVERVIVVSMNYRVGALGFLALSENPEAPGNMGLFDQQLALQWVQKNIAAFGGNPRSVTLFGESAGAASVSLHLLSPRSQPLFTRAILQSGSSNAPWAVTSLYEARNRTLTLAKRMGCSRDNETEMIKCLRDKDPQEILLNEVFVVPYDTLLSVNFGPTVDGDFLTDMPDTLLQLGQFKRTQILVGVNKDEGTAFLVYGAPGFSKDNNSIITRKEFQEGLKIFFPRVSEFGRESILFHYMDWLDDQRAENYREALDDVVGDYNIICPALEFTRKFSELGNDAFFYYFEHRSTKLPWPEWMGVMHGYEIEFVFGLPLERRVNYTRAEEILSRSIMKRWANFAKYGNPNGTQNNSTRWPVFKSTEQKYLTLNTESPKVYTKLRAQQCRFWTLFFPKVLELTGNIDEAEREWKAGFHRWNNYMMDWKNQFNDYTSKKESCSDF
Experimental: (§1) The reaction started with the addition of 10 μL of DTNB and 10 μL of Ach or Bch.
(§2) Briefly, the basis for this assay is the hydrolysis of acetylthiocholine by acetylcholinesterase, producing thiocholine that reacts with DTNB. […] Degrees of inhibition were calculated according to […] wherein E and S represent enzyme activities in the presence and absence of a test sample, respectively.

[2] = molecular target: T2, BACE1 (β-secretase, recombinant human enzyme) (Homo sapiens, UniProt P56817); assay: In vitro BACE1 activity assay (FRET kit); assay type: biochemical; conditions: compounds in 10% DMSO, concentrations up to 125 μM
T2 construct: purchased Pan Vera Co. (Madison, WI, USA)
T2 sequence (P56817 46-501): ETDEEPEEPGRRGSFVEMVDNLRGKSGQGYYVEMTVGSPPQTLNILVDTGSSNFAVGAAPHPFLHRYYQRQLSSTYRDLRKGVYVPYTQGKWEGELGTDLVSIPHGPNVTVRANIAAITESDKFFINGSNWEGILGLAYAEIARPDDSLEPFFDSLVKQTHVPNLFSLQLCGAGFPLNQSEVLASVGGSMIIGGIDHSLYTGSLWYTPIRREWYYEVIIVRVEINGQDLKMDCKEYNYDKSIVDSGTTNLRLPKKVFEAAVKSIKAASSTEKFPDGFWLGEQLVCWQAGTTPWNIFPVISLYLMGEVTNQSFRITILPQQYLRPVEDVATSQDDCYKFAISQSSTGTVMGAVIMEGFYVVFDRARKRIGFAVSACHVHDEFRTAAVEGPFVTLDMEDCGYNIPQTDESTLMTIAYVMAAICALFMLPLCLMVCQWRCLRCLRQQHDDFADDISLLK
Excerpt: BACE1 (beta-secretase) FRET assay kit was purchased from Pan Vera Co. (Madison, WI, USA). All the chemicals and solvents used in column chromatography were of reagent grade and were used as received without further purification.
A BACE1 fluorescence resonance energy transfer (FRET) assay kit (β-secretase, recombinant human enzyme) was purchased from Pan Vera Co. (Madison, WI, USA).
BACE1 is an enzyme promotive of the production of β-amyloid, which destroys neurons. In order to examine the effects on the compounds of Table 1 on the activity of BACE1, IC(inhibition concentrations)50 values were determined by measuring BACE1 activity in vitro according to Experimental Methods.

[3] = molecular target: T3, acetylcholinesterase (AChE) (Electrophorus electricus, UniProt O42275); assay: In vitro cholinesterase activity assay (Ellman), AChE; assay type: biochemical; conditions: for SI: selectivity index (BChE/AChE): ratio of IC50 BChE/AChE
T3 construct: purchased Sigma-Aldrich Co. (St. Louis, MO, USA)
T3 sequence (O42275 24-633): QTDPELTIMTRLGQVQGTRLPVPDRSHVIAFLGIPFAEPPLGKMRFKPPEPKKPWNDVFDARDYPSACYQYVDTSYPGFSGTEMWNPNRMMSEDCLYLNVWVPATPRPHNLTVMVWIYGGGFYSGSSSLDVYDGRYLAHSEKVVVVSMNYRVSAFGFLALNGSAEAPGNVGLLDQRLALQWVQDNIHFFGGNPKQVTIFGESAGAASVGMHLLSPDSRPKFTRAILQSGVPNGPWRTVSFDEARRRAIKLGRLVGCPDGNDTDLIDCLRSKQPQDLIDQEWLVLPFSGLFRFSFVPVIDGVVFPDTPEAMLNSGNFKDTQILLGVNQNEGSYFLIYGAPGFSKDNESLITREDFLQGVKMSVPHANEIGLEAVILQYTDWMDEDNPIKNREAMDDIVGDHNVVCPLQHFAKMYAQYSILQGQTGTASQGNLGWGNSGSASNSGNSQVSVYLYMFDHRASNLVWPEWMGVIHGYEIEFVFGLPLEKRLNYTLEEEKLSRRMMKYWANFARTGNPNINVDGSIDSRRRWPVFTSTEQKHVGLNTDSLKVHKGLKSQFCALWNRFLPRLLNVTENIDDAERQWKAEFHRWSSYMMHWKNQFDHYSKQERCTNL
Experimental: as §1, §2
(§3) The compounds of Table 1 were evaluated for anti-Alzheimer activity. In this regard, inhibitory activity against AChE (acetylcholinesterase) and BChE (butyrylcholinesterase), which lyse acetylcholine in the central nervous system, was measured according to the Experimental Method to calculate IC(inhibition concentrations)50 values.

[4] = molecular target: T3, acetylcholinesterase (AChE); assay: AChE enzyme kinetics (Dixon plot and Lineweaver plot); assay type: biochemical
Experimental: as §1, §2

B16F10 cells = assay: MTT cytotoxicity assay, cancerous cell line B16F10; assay type: cell-based; conditions: B16F10 mouse melanoma, 48 hours incubation
Experimental: (§4) The normal cell line NIH3T3 (mouse embryo fibroblast cell-line) and the cancerous cell line B16F10 (mouse melanoma cell-line) were separately grown in 96-well plates and incubated for 48 hours with predetermined concentrations of each of the compounds. After additional incubation with MTT, absorbance at 550 nm was read using a microplate reader. Absorbance is an index accounting for a number of viable cells and was used to calculate cell proliferation rates according to the following formula. All experiments were conducted three times for reproducibility. Cell proliferation rate (%)=OD550(sample)/OD550(control)
(§5) Then, LD50 (Lethal Dose 50) values were calculated on the basis of changes in the cell proliferation rate.

[5] = molecular target: T1, butyrylcholinesterase (BChE); assay: In vitro cholinesterase activity assay (Ellman), BChE; assay type: biochemical; conditions: concentrations up to 125 μM; Mean ± SEM; read-out: IC50 Butyrylcholine esterase Mean ± SEM
Experimental: as §1, §2, §3

BACE1 = molecular target: T4, BACE1 (Homo sapiens, UniProt P56817); assay: BACE1 enzyme kinetics (Dixon plot and Lineweaver plot); assay type: biochemical
T4 construct: purchased Pan Vera Co. (Madison, WI, USA)
T4 sequence (P56817 46-501): as the sequence (P56817 46-501) above
Experimental: A BACE1 fluorescence resonance energy transfer (FRET) assay kit (β-secretase, recombinant human enzyme) was purchased from Pan Vera Co. (Madison, WI, USA). The assay was carried out according to the manual provided, with a modification made thereto as described by Jung et al. (Jung et al., Biol Pharm Bull, 2010, 33:267-272). Quercetin was used as a positive control.
In addition, an enzyme kinetics experiment was conducted using the Lineweaver plot and Dixon plot (see FIG. 7) in order to examine the BACE1 inhibition mechanism of the novel compound (Compound 2). […] The results of the experiment indicate that the novel compound of the present disclosure is a very potent inhibitor against BACE1.

NIH3T3 cells = assay: MTT cytotoxicity assay, normal cell line NIH3T3; assay type: cell-based; conditions: NIH3T3 mouse embryo fibroblast, 48 hours incubation
Experimental: as §4, §5

Structure (SMILES)	Inhibition type Butyrylcholinesterase [1]	Inhibition type Butyrylcholinesterase ([1]; listed as (2R)-Pteroside B)	IC50 [2] [µM]	SI: selectivity index (BChE/AChE) [3]	Inhibition type Acetylcholinesterase [4]	Inhibition type Acetylcholinesterase ([4]; listed as (2R)-Pteroside B)	LD50 Cancer cell B16F10 (B16F10 cells)	IC50 [5] [µM]	Inhibition type BACE1 (BACE1)	Ki (BACE1) [µM]	Inhibition type BACE1 (BACE1; listed as (2R)-Pteroside B)	LD50 Normal cell NIH3T3 (NIH3T3 cells)	IC50 ([3]; concentrations up to 125 μM, Mean ± SEM, read-out: IC50 Acetylcholine Esterase Mean ± SEM) [µM]
Cc1cc2c(c(C)c1CCO[C@@H]1OC(CO)[C@@H](O)[C@H](O)C1O)C(=O)[C@H](C)C2 (stereo partly drawn) [Compound 14, (2R)-pteroside B]	mixed type	Mixed-type	43.4 ± 3	6.9	mixed type	Mixed-type	>5,000 μM	17.6 ± 3.1	noncompetitive type	72.5	Noncompetitive	>5,000 μM	–
Cc1c(CCO[C@@H]2OC(CO)[C@@H](O)[C@H](O)C2O)c(CO)cc2c1C(=O)[C@@H](C)C2 (stereo partly drawn) [Compound 19, (2S)-pteroside P]	–	–	81.3 ± 3.9	0.57	–	–	>5,000 μM	33.2 ± 3	–	–	–	>5,000 μM	57.5 ± 3.2
